Test results taken from article PMC10544029, “Design, Synthesis, and Application of Fluorescent Ligands Targeting the Intracellular Allosteric Binding Site of the CXC Chemokine Receptor 2” (Journal of Medicinal Chemistry, 2023).

Key:
[1] = system: SNAP-tagged CXCR2-tsNanoLuc HEK293; assay: Live cell imaging of fluorescent ligand binding to SNAP-tagged CXCR2-tsNanoLuc HEK293; assay type: cell-based, human; conditions: 1 μM 11a, 10 min at 37 °C, specific, displaced by 10 μM 2
Description: HEK 293 cells expressing SNAP-CXCR2-tsNanoLuc were seeded on black, clear bottom, poly-D-lysine-coated 96-well plates (Greiner 655097) at a density of 30,000 cells/well and allowed to grow overnight. Post-incubation, growth media were replaced with Hepes balances salt solution supplemented with 0.1% BSA (HBSS +0.1% BSA), 0.1 μM SNAP-surface AF488, 2 μg/mL Hoechst 33342 nuclear stain (H33342), and either HBSS +0.1% BSA or 10 μM (R)-navarixin (2).

[2] = target: T1, CXCR1 (Homo sapiens, UniProt P25024); assay: CXCR1-NanoLuc NanoBRET saturation binding in membranes; conditions: result in words
T1 construct: expressed in transfected cells; membranes
T1 sequence (P25024 1-350): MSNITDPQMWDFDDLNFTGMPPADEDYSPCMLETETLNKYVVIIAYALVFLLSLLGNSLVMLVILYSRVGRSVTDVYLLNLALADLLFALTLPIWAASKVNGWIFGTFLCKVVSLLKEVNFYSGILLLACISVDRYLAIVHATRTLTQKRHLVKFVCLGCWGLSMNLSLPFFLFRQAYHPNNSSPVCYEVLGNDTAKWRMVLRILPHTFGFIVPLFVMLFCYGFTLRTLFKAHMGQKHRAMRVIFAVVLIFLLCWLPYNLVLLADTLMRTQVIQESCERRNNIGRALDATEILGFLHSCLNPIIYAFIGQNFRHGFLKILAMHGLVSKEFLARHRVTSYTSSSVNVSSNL
Description: NanoBRET assays were carried out in OptiPlate-384 white well microplates (product number: 6007290, PerkinElmer LAS Ltd., UK) and used 25 mM HEPES, 1% DMSO, 0.1 mg/mL Saponin, 0.2 mg Pluronic acid F127, 1 mM MgCl2 and 0.1% BSA (pH 7.4) assay buffer. Both saturation and competition assays employed 1 μg/well HEK 293 SNAP-CXCR2-NanoLuc or SNAP-CXCR1-NanoLuc cell membranes for characterization of fluorescent ligand binding and employed 100 nM or 10 μM R-navarixin (2) to define non-specific binding (NSB). […] Membranes were incubated with furimazine at a 1/660 dilution for 5 min prior to addition to the assay plate, allowing for equilibration of luminescence output. NanoBRET was monitored every 15 s for 60 min at 37 °C measuring Nanoluciferase output (450 nm) and BODIPY 630–650 output (630 nm [610-LP filter]), generating a BRET ratio (630 nm/450 nm), using a BMG PHERAstar FS (BMG Labtech). Collected data was converted to specific binding measurements through subtraction of NSB data and analyzed by endpoint saturation analysis, allowing determination of ligand dissociation constant (KD) through [drawing 1] 1

[3] = Chemical stability on purification and isolation; assay type: physicochemical; conditions: purification by normal and reverse-phase chromatography

chemical stability [3] | Compound | fluorescent labelling of cells [1] | CXCR1 specific binding [2]
 | CC[C@@H](Nc1c(Nc2cccc(C(=O)NCCNC(=O)CCCCCNC(=O)COc3ccc(/C=C/C4=[N+]5C(=Cc6ccc(-c7cccs7)n6[B-]5(F)F)C=C4)cc3)c2O)c(=O)c1=O)c1ccc(C)o1 [11a, (R,E)-N-(2-(6-(2-(4-(2-(5,5-Difluoro-7-(thiophen-2-yl)-5H-4λ4,5λ4-dipyrrolo[1,2-c:2’,1’-f][1,3,2]diazaborinin-3-yl)vinyl)phenoxy)acetamido)hexanamido)ethyl)-2-hydroxy-3-((2-((1-(5-methylfuran-2-yl)propyl)amino)-3,4-dioxocyclobut-1-en-1-yl)amino)benzamide] | both cell surface and intracellular endosomal fluorescent labelling | no CXCR1 specific binding
 | CC[C@@H](Nc1c(Nc2cccc(C(=O)NCCNC(=O)CNC(=O)CCCCCNC(=O)COc3ccc(/C=C/C4=[N+]5C(=Cc6ccc(-c7cccs7)n6[B-]5(F)F)C=C4)cc3)c2O)c(=O)c1=O)c1ccc(C)o1 [11c, (R,E)-N-(2-(2-(6-(2-(4-(2-(5,5-Difluoro-7-(thiophen-2-yl)-5H-4λ4,5λ4-dipyrrolo[1,2-c:2′,1′-f][1,3,2]diazaborinin-3-yl)vinyl)phenoxy)acetamido)hexanamido)acetamido)ethyl)-2-hydroxy-3-((2-((1-(5-methylfuran-2-yl)propyl)amino)-3,4-dioxocyclobut-1-en-1-yl)amino)benzamide] |  | no CXCR1 specific binding
chemically unstable | CC[C@@H](Nc1c(Nc2cccc(C(=O)N(C)CCNC(=O)OCC3c4ccccc4-c4ccccc43)c2O)c(=O)c1=O)c1ccc(C)o1 [10b, (9H-Fluoren-9-yl)methyl(R)-(2-(2-hydroxy-N-methyl-3-((2-((1-(5-methylfuran-2-yl)propyl)amino)-3,4-dioxocyclobut-1-en-1-yl)amino)benzamido)ethyl)carbamate] |  | 
 | CC[C@@H](Nc1c(Nc2cccc(C(=O)NCCNC(=O)CCNC(=O)CCCCCNC(=O)COc3ccc(/C=C/C4=[N+]5C(=Cc6ccc(-c7cccs7)n6[B-]5(F)F)C=C4)cc3)c2O)c(=O)c1=O)c1ccc(C)o1 [11e, (R,E)-N-(2-(3-(6-(2-(4-(2-(5,5-Difluoro-7-(thiophen-2-yl)-5H-4λ4,5λ4-dipyrrolo[1,2-c:2′,1′-f][1,3,2]diazaborinin-3-yl)vinyl)phenoxy)acetamido)hexanamido)propanamido)ethyl)-2-hydroxy-3-((2-((1-(5-methylfuran-2-yl)propyl)amino)-3,4-dioxocyclobut-1-en-1-yl)amino)benzamide] |  | no CXCR1 specific binding
